The source of these data is the Kinase Knowledgebase extract (Sharma et al. 2016).

Several values for one entry are separate records, joined by “and”; a condition that tells them apart may be missing. Equal entries are not always repeated.

Chain of PIK3CG (human) (P48736 whole entry, looked up): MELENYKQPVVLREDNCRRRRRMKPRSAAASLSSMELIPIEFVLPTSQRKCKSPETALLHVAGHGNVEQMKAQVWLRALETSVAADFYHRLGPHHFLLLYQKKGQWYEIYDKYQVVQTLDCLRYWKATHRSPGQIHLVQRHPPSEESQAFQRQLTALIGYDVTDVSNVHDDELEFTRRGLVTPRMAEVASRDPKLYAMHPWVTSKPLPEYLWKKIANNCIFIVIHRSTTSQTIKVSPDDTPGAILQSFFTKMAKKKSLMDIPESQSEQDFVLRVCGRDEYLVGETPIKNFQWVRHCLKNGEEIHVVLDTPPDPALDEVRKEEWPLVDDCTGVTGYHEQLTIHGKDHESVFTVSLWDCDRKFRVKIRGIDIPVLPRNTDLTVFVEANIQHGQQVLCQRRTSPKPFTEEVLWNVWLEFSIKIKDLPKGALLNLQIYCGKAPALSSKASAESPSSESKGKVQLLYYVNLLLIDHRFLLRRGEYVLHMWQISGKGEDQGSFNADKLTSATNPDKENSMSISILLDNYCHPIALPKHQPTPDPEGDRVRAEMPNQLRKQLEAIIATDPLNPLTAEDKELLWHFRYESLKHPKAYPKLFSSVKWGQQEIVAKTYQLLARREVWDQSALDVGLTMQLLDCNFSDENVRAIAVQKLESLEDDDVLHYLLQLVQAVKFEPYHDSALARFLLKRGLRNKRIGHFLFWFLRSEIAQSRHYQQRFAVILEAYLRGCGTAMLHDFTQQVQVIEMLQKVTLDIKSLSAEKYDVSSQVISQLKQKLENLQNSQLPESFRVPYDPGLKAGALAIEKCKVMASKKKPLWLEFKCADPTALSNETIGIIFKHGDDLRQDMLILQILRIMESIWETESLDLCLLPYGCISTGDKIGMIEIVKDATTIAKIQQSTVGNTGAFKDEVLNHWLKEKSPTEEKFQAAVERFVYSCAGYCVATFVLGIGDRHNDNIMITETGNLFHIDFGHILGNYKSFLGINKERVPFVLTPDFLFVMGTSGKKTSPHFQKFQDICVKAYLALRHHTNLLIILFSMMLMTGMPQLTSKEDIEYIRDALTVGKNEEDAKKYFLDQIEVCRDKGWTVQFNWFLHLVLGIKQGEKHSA

The test has as its target PIK3CG (human) (UniProt P48736). In words: Inhibition of PIK3CG Kinase Activity.
For `COc1cc(-c2ccc3c(c2)CN(c2cnn(CC#N)c2)C3=O)cnc1OC`, the Ki was less than 0.1 µM.

As to `COc1cc(-c2ccc3c(n2)CN(c2cnn(CC4(C)COC4)c2)C3=O)cnc1OC`, the Ki is less than 0.1 µM.

Molecule `COc1ncc(-c2cc(C)c3c(n2)C(C)(C)N(c2cnn(CC(F)(F)F)c2)C3=O)cc1C(=O)NC(C)C` displayed a Ki of less than 0.1 µM. The value for `COc1cc(-c2ccc3c(n2)CN(c2cncc(C(C)(C)C#N)c2)C3=O)cnc1OC` was less than 0.1 µM; that for `CCOc1ncc(-c2cc(C)c3c(n2)CN(c2cnn(CC#N)c2)C3=O)cc1OC` was less than 0.1 µM; that for `CCN(C)C(=O)COc1ccc(N2Cc3nc(-c4cnc(OC)c(OC)c4)ccc3C2=O)cn1` was 0.1 to 0.49 µM. As for `COc1cc(-c2ccc3c(n2)[C@@H](C)N(c2cn(CC(F)(F)F)cn2)C3=O)cnc1OC`, the figure is less than 0.1 µM; as for `COc1cc(-c2ccc3c(n2)CN(c2ccc(N(C)CC(OC)OC)nc2)C3=O)cnc1OC`, 0.1 to 0.49 µM. As for `Cc1cc(-c2cncc(C(=O)NCC(F)F)c2)nc2c1C(=O)N(c1cnn(CC(F)(F)F)c1)C2(C)C`, the figure is less than 0.1 µM; as for `COCc1cc(N2Cc3nc(-c4cnc(OC)c(OC)c4)ccc3C2=O)nn1CC(F)(F)F`, less than 0.1 µM. Take `COc1cc(-c2ccc3c(n2)CN(c2cnn(C(C)(C)C#N)c2)C3=O)cnc1OC(F)F`: the Ki was less than 0.1 µM.

In turn, `Cc1cc(-c2cncc(OC(C)C)c2)nc2c1C(=O)N(c1cnn(CC(F)(F)F)c1)C2(C)C` yielded a Ki of less than 0.1 µM. The value for `COc1ncc(-c2cc(C)c3c(n2)C(C)N(c2cnn(CC(F)(F)F)c2)C3=O)cc1OC(F)F` (stereo unspecified) was less than 0.1 µM.

The molecule `COc1cc(-c2ccc3c(n2)C(C)N(c2cnn(CC(C)(C)O)c2)C3=O)cnc1OC` (stereo unspecified) yielded a Ki of 0.1 to 0.49 µM.

`COCCC1c2nc(-c3cnc(OC)c(OC)c3)cc(C)c2C(=O)N1c1cnn(CC(F)(F)F)c1` (stereo unspecified) registered a Ki of less than 0.1 µM. The value for `COCCOCCOc1ncc(-c2cc(C)c3c(n2)C(C)N(c2cnn(CC(F)(F)F)c2)C3=O)cc1OC` (stereo unspecified) was less than 0.1 µM. The value for `CCO[C@@H]1c2nc(-c3cnc(OC)c(OC)c3)cc(C)c2C(=O)N1c1cnn(CC(F)(F)F)c1` was less than 0.1 µM. As for `Cc1cc(-c2cncc(OCC(F)(F)F)c2)nc2c1C(=O)N(c1cnn(CC#N)c1)C2(C)C`, the figure is less than 0.1 µM; as for `Cc1cc(-c2cncc(OC(F)F)c2)nc2c1C(=O)N(c1cncc(C(C)(C)C#N)c1)C2`, less than 0.1 µM. In the case of `COc1cc(-c2ccc3c(c2)CN(c2ccn(CC(N)=O)n2)C3=O)cnc1OC`, the Ki fell in the range of 0.1 to 0.49 µM.

For `CCn1cc(N2Cc3nc(-c4cnc(OC)c(OC(F)F)c4)cc(C)c3C2=O)cn1`, the Ki is less than 0.1 µM.

`COc1cncc(-c2cc(C)c3c(n2)CN(c2ccn(C4COC4)n2)C3=O)c1` came in with a Ki of less than 0.1 µM. As for `Cc1cc(-c2cncc([S+](C)[O-])c2)nc2c1C(=O)N(c1cnn(CC(F)(F)F)c1)C2(C)C` (stereo unspecified), the figure is 0.1 to 0.49 µM and < 0.1 µM; as for `CCOc1ncc(-c2ccc3c(c2)CN(c2cnn(CC#N)c2)C3=O)cc1OC`, less than 0.1 µM. In turn, `Cc1cc(-c2cncc(C(=O)O)c2)nc2c1C(=O)N(c1cnn(CC(F)(F)F)c1)C2C` (stereo unspecified) came in with a Ki of less than 0.1 µM.

The molecule `CCn1ccc(N2C(=O)c3c(C)cc(-c4cncc(OC)c4)nc3C2(C)C)n1` registered a Ki of 0.1 to 0.49 µM. The value for `COCCn1cc(N2Cc3nc(-c4cnc(OC)c(OC)c4)ccc3C2=O)ccc1=O` was 0.1 to 0.49 µM; that for `CCc1cc(N2Cc3nc(-c4cnc(OC)c(OC)c4)ccc3C2=O)nn1C` was less than 0.1 µM; that for `COc1cc(-c2ccc3c(c2)CN(c2ccn(CC#N)n2)C3=O)cnc1OC` was less than 0.1 µM. As for `COc1cc(-c2ccc3c(n2)CN(c2ccc(=O)n(CC(F)(F)F)c2)C3=O)cnc1OC`, the figure is less than 0.1 µM. `CCNC(=O)c1cc(-c2cc(C)c3c(n2)C(C)N(c2cnn(CC(F)F)c2)C3=O)cnc1OC` (stereo unspecified): the Ki is less than 0.1 µM. The value for `CCOc1cc(-c2ccc3c(c2)CN(c2cnn(CC)c2)C3=O)cnc1OC` was 0.1 to 0.49 µM.

`CCn1ccc(N2C(=O)c3ccc(-c4cnc(OC)c(OC)c4)nc3C2C)n1` (stereo unspecified) returned a Ki of less than 0.1 µM. As for `COc1cc(-c2ccc3c(n2)CN(c2ccn(CC4CCCCO4)n2)C3=O)cnc1OC` (stereo unspecified), the figure is less than 0.1 µM. As for `COc1cc(-c2ccc3c(n2)CN(c2cnn([C@@H](CO)C(F)(F)F)c2)C3=O)cnc1OC`, the figure is less than 0.1 µM; as for `COc1cncc(-c2cc(C)c3c(n2)C2(CNC2)N(c2cnn(CC(F)(F)F)c2)C3=O)c1`, less than 0.1 µM; as for `COCCn1ccc(N2Cc3nc(-c4cnc(OC)c(OC)c4)ccc3C2=O)n1`, 0.1 to 0.49 µM. As for `COc1ncc(-c2cc(C)c3c(n2)CN(c2cn[nH]c2)C3=O)cc1OCC(F)(F)F`, the figure is less than 0.1 µM; as for `Cc1ccc(-c2cc(C)c3c(n2)CN(c2cnn(CC#N)c2)C3=O)cn1`, less than 0.1 µM. Take `Cc1cc(-c2cncc(OCC(F)F)c2)nc2c1C(=O)N(c1cnn(CC(F)(F)F)c1)C2`: the Ki is less than 0.1 µM. `COc1cc(-c2ccc3c(n2)CN(c2cnn(CCn4nc(C)cc4C)c2)C3=O)cnc1OC` gave an inhibitory constant (Ki) of 0.1 to 0.49 µM. `COc1cc(-c2ccc3c(c2)CN(c2cnn([C@H](C)C#N)c2)C3=O)cnc1OC` had a Ki of less than 0.1 µM. As for `Cc1cc(-c2cncc(OC(F)F)c2)nc2c1C(=O)N(c1cnn(C(C)(C)C#N)c1)C2`, the figure is less than 0.1 µM.

`CCn1cc(N2Cc3nc(-c4cccc(OC)c4)cc(C)c3C2=O)cn1` had a Ki of less than 0.1 µM. The value for `Cc1cc(-c2cncc(C(=O)N(C)C(C)CO)c2)nc2c1C(=O)N(c1cnn(CC(F)(F)F)c1)C2(C)C` (stereo unspecified) was less than 0.1 µM. The molecule `COc1ncc(-c2cc(C)c3c(n2)CN(c2cnn(CC(F)(F)F)c2)C3=O)cc1Cl` had an inhibitory constant (Ki) of less than 0.1 µM. `COc1cncc(-c2cc(C)c3c(n2)CN(c2ccn([C@@H]4CCOC4)n2)C3=O)c1` yielded a Ki of less than 0.1 µM.

`COc1cc(-c2ccc3c(n2)CN(c2cnn(Cc4cccnc4)c2)C3=O)cnc1OC` came in with an inhibitory constant (Ki) of less than 0.1 µM. As for `CCOc1cncc(-c2cc(C)c3c(n2)[C@H](C)N(c2cnn(CC(F)(F)F)c2)C3=O)c1`, the figure is less than 0.1 µM; as for `COc1cc(-c2ccc3c(n2)CN(c2cnn(CCN(C)C)c2)C3=O)cnc1OC`, 0.1 to 0.49 µM; as for `Cc1cc(-c2cnc(C)c(C(=O)O)c2)nc2c1C(=O)N(c1cnn(CC(F)(F)F)c1)C2(C)C`, less than 0.1 µM. With `COc1cc(OC)cc(-c2cc(C)c3c(n2)C(C)N(c2cnn(CC(F)(F)F)c2)C3=O)c1` (stereo unspecified), the Ki is less than 0.1 µM. The value for `COc1ccc(-c2cc(C)c3c(c2)C(C)N(c2cnn(CC(F)(F)F)c2)C3=O)cc1OC` (stereo unspecified) was less than 0.1 µM; that for `COc1cc(-c2ccc3c(n2)CN(c2cnn(CC(O)C(F)(F)F)c2)C3=O)cnc1OC` (stereo unspecified) was less than 0.1 µM. The value for `COc1cc(-c2cc(C)c3c(n2)C(C)(C)N(c2cnn(CC(F)(F)F)c2)C3=O)cnc1OC` was less than 0.1 µM; that for `COc1cc(-c2cc(C)c3c(n2)CN(c2cnccn2)C3=O)cnc1OC` was less than 0.1 µM; that for `COc1cc(-c2cc(C)c3c(n2)C(C)N(c2cnn(C[C@@H](C)O)c2)C3=O)cnc1OC` (stereo partly specified) was less than 0.1 µM. For `Cc1cc(-c2cncc(C(=O)NC(C)(C)C)c2)nc2c1C(=O)N(c1cnn(CC(F)(F)F)c1)C2`, the Ki is less than 0.1 µM. In turn, `COc1cc(-c2cc(C)c3c(n2)C(C)N(c2cnn(CC(F)(F)F)c2)C3=O)cnc1C` (stereo unspecified) yielded a Ki of less than 0.1 µM. Take `COc1cc(-c2ccc3c(n2)[C@@H](C)N(c2cnn(CC#N)c2)C3=O)cnc1OC`: the Ki is less than 0.1 µM. As for `COc1cc(-c2ccc3c(n2)CN(c2cnn(C(F)(F)C(N)=O)c2)C3=O)cnc1OC`, the figure is less than 0.1 µM.
